Key:
Assay type in all cases: in vivo
[1] = test system: barnyardgrass (Echinochloa crus-galli); assay: Test G Pre-Emergence Protocol; conditions: evaluated after 13 days; for Barnyardgrass damage rating: 62.5 g ai/ha, 100=total damage to plant, 0=no damage to plant
Experimental: (§1) Seeds of corn (Zea mays), giant foxtail (Setaria faberi), barnyardgrass (Echinochloa crus-galli), ivy-leaved morning glory (Ipomoea hederacea), redroot pigweed (Amaranthus retroflexus) and velvetleaf (Abutilon theophrasti) were sown in standard soil in pots. After cultivation for one day under controlled conditions in a glasshouse (at 24/16° C., day/night; 14 hours light; 65% humidity), the plants were sprayed with an aqueous spray solution derived from the formulation of the technical active ingredient in acetone/water (50:50) solution containing 0.5% Tween 20 (polyoxyethylene sorbitan monolaurate, CAS RN 9005-64-5) to give a final dose of 15.625, 62.5 or 250 g/ha of test compound.
(§2) The test plants were then grown on under controlled conditions in a glasshouse (at 24/16° C., day/night; 14 hours light; 65% humidity) and watered twice daily. After 13 days the test was evaluated (100=total damage to plant; 0=no damage to plant). A dash (-) means no test result.

[2] = test system: corn (Zea mays); assay: Test G Pre-Emergence Protocol; conditions: evaluated after 13 days; for Corn damage rating: 62.5 g ai/ha, 100=total damage to plant, 0=no damage to plant
Experimental: as §1, §2

[3] = test system: giant foxtail (Setaria faberi); assay: Test G Pre-Emergence Protocol; conditions: evaluated after 13 days; for Foxtail, Giant damage rating: 62.5 g ai/ha, 100=total damage to plant, 0=no damage to plant
Experimental: as §1, §2

[4] = test system: ivy-leaved morning glory (Ipomoea hederacea); assay: Test G Pre-Emergence Protocol; conditions: evaluated after 13 days; for Morningglory, Ivy-leaved damage rating: 62.5 g ai/ha, 100=total damage to plant, 0=no damage to plant
Experimental: as §1, §2

[5] = test system: redroot pigweed (Amaranthus retroflexus); assay: Test G Pre-Emergence Protocol; conditions: evaluated after 13 days; for Pigweed, Redroot damage rating: 62.5 g ai/ha, 100=total damage to plant, 0=no damage to plant
Experimental: as §1, §2

[6] = test system: velvetleaf (Abutilon theophrasti); assay: Test G Pre-Emergence Protocol; conditions: evaluated after 13 days; for Velvetleaf damage rating: 62.5 g ai/ha, 100=total damage to plant, 0=no damage to plant
Experimental: as §1, §2

[7] = test system: barnyardgrass (Echinochloa crus-galli); assay: Test G Post-Emergence Protocol
Experimental: as §1, with “8 days” for “one day”
as §2

[8] = test system: corn (Zea mays); assay: Test G Post-Emergence Protocol
Experimental: as §1, with “8 days” for “one day”
as §2

[9] = test system: giant foxtail (Setaria faberi); assay: Test G Post-Emergence Protocol
Experimental: as §1, with “8 days” for “one day”
as §2

[10] = test system: ivy-leaved morning glory (Ipomoea hederacea); assay: Test G Post-Emergence Protocol
Experimental: as §1, with “8 days” for “one day”
as §2

[11] = test system: redroot pigweed (Amaranthus retroflexus); assay: Test G Post-Emergence Protocol
Experimental: as §1, with “8 days” for “one day”
as §2

[12] = test system: velvetleaf (Abutilon theophrasti); assay: Test G Post-Emergence Protocol
Experimental: as §1, with “8 days” for “one day”
as §2

[13] = 15.625 g ai/ha, evaluated after 13 days (100=total damage to plant; 0=no damage to plant)
[14] = 62.5 g ai/ha, evaluated after 13 days, 100=total damage to plant, 0=no damage to plant
[15] = 250 g ai/ha, evaluated after 13 days, 100=total damage to plant, 0=no damage to plant

Row | Structure (SMILES) | Barnyardgrass damage rating (100=total damage to plant; 0=no damage to plant) ([1]; 15.625 g ai/ha) | Barnyardgrass damage rating [1] | Barnyardgrass damage rating (100=total damage to plant; 0=no damage to plant) ([1]; 250 g ai/ha) | Corn damage rating (100=total damage to plant; 0=no damage to plant) ([2]; 15.625 g ai/ha) | Corn damage rating [2] | Corn damage rating (100=total damage to plant; 0=no damage to plant) ([2]; 250 g ai/ha) | Foxtail, Giant damage rating (100=total damage to plant; 0=no damage to plant) ([3]; 15.625 g ai/ha) | Foxtail, Giant damage rating [3] | Foxtail, Giant damage rating (100=total damage to plant; 0=no damage to plant) ([3]; 250 g ai/ha) | Morningglory, Ivy-leaved damage rating (100=total damage to plant; 0=no damage to plant) ([4]; 15.625 g ai/ha) | Morningglory, Ivy-leaved damage rating [4] | Morningglory, Ivy-leaved damage rating (100=total damage to plant; 0=no damage to plant) ([4]; 250 g ai/ha) | Pigweed, Redroot damage rating (100=total damage to plant; 0=no damage to plant) ([5]; 15.625 g ai/ha) | Pigweed, Redroot damage rating [5] | Pigweed, Redroot damage rating (100=total damage to plant; 0=no damage to plant) ([5]; 250 g ai/ha) | Velvetleaf damage rating (100=total damage to plant; 0=no damage to plant) ([6]; 15.625 g ai/ha) | Velvetleaf damage rating [6] | Velvetleaf damage rating (100=total damage to plant; 0=no damage to plant) ([6]; 250 g ai/ha) | Barnyardgrass damage rating [7, 13] | Barnyardgrass damage rating [7, 14] | also measured
1 | CN1C[C@@H](c2ccc(C(F)(F)F)cc2)[C@H](C(=O)Nc2cccnc2F)C1=O [Compound 1768] | 0 | 0 | 0 | 0 | 0 | 0 | 0 | 0 | 0 | 0 | 0 | 0 | 0 | 0 | 0 | 0 | 0 | 0 | 0 | 0 | Barnyardgrass damage rating [7, 15]: 0; Corn damage rating [8, 13]: 0; Corn damage rating [8, 14]: 0; Corn damage rating [8, 15]: 0; Foxtail, Giant damage rating [9, 13]: 0; Foxtail, Giant damage rating [9, 14]: 0; Foxtail, Giant damage rating [9, 15]: 0; Morningglory, Ivy-leaved damage rating [10, 13]: 0; Morningglory, Ivy-leaved damage rating [10, 14]: 0; Morningglory, Ivy-leaved damage rating [10, 15]: 0; Pigweed, Redroot damage rating [11, 13]: 0; Pigweed, Redroot damage rating [11, 14]: 0; Pigweed, Redroot damage rating [11, 15]: 0; Velvetleaf damage rating [12, 13]: 0; Velvetleaf damage rating [12, 14]: 0; Velvetleaf damage rating [12, 15]: 0
2 | CN1C[C@H](c2cccc(C(F)(F)F)c2)[C@@H](C(=O)Nc2cccc(F)n2)C1=O [Compound 1816] | 90 | 90 | 90 | 70 | 80 | 80 | 90 | 90 | 90 | 20 | 60 | 80 | 0 | 40 | 80 | 0 | 20 | 60 | 80 | 80 | Barnyardgrass damage rating [7, 15]: 80; Corn damage rating [8, 13]: 70; Corn damage rating [8, 14]: 80; Corn damage rating [8, 15]: 80; Foxtail, Giant damage rating [9, 13]: 80; Foxtail, Giant damage rating [9, 14]: 80; Foxtail, Giant damage rating [9, 15]: 80; Morningglory, Ivy-leaved damage rating [10, 13]: 10; Morningglory, Ivy-leaved damage rating [10, 14]: 60; Morningglory, Ivy-leaved damage rating [10, 15]: 70; Pigweed, Redroot damage rating [11, 13]: 10; Pigweed, Redroot damage rating [11, 14]: 40; Pigweed, Redroot damage rating [11, 15]: 70; Velvetleaf damage rating [12, 13]: 0; Velvetleaf damage rating [12, 14]: 30; Velvetleaf damage rating [12, 15]: 30

Reference: patent US12077503B2, “Substituted cyclic amides and their use as herbicides” (FMC CORPORATION, priority 2015, dated 2024)
